Assay results taken from PMC7066135, “The lipoprotein Pal stabilises the bacterial outer membrane during constriction by a mobilisation-and-capture mechanism” (Nature Communications, 2020).

Tested on: Pal-mCherry accumulation at the septum
Assay: TIRFM of Pal-mCherry accumulation at the division septum
Type: cell-based
Conditions: dividing E. coli cells, mutant TolB; average of 30 cells
Protocol: Overnight supplemented M9-glucose (2 mM MgSO4, 0.1 mM CaCl2, 0.4% (w/v) D-glucose) cultures were diluted in fresh medium with appropriate antibiotics and IPTG for strains expressing TolA from plasmids. Cultures were grown at 37 °C to OD600 0.3. Cells were centrifuged at 7000 × g for 1 min, resuspended in 1 ml of fresh media and treated with CCCP (0.1 mM, RT for 5 min, Sigma #C2759) for PMF decoupling, sodium azide (50 µg ml^−1, RT for 30 min, Sigma #S2002) for ATPase inhibition or chloramphenicol (30 µg ml^−1, 37 °C for 30 min, Sigma #C0378) for translation inhibition. […]
Live cells were imaged using an Oxford NanoImager (ONI) superresolution microscope equipped with four laser lines (405/473/561/640 nm) and ×100 oil immersion objective (Olympus 1.49 NA). Pal-mCherry fluorescence images were acquired by scanning a 50 µm × 80 µm area with a 561 nm laser (0.2 mW) set at 49° incidence angle (100 ms exposition), resulting in a 512 × 1024 pixel image. […] Images were recorded by NimOS software associated with the ONI instrument. If not noted otherwise, each image was acquired as a 100- or 200-frame stack for brightfield and fluorescence channels, respectively. […]
All images were analysed using ImageJ software. Fluorescence distribution along x-axis of cells was determined by the plot profile function with a line width of 4 points for TIRFM images and 40 or 80 for FRAP images. […]

Substance: TolB^AAA: Alanine-substitution of three key hydrophobic residues in E. coli TolB (Ile25Ala, Val26Ala, Ile27Ala)
- Pal-mCherry accumulation at division sites: abolishes Pal-mCherry accumulation at the septum
